“Also recorded” adds a separate entry of the source. Read-outs that look alike come from different tables or passages of the source.
How the values were obtained:
[1] = tested on: HCT116, H929, and MM1S cells; assay: Proliferation assay (continuous exposure), 72 h, Alamar Blue; format: cell-based; conditions: 72 h continuous
Protocol: To assess in vitro anticancer activity, HCT116, H929, and MM1S cells were treated continuously for 72 hours with increasing concentrations of (S,S)-A3, (S,R)-A3, or dA3 (cyclic peptide 4 (Carelli, Taunton, et al., eLife, 2015), here termed “dA3” (deoxy-A3)). Cell viability was then assessed using the Alamar Blue assay.

[2] = tested on: HCT116, H929, and MM1S cells; assay: Proliferation assay (transient exposure, followed by washout), CellTiter Glo; format: cell-based; conditions: for antiproliferative activity after transient exposure and washout: 1 h or 4 h exposure, stringent washout, 72 h compound-free media, HCT116, H929, MM1S
Protocol: 0.6×10^6 cells were seeded in 3 mL complete growth media per well in 6-well plates. […] For adherent cells, growth media was carefully removed, cells were washed with warm PBS twice (2×short wash), and followed by 5 min incubation in warm media at 37° C. (long wash). After repeating the “short-long” washing cycle 3 times, cells were resuspended in warm media and plated in flat-bottom 96-well plates (100 uL/well) at equal cell number. For suspension cells, cells were collected and spun down at 300×g for 3 min. Supernatant was carefully removed, cells were then washed with warm PBS twice (2× short wash), followed by 5 min incubation in warm media at 37° C. (long wash). After repeating the “short-long” washing cycle 3 times, cells were resuspended in warm media and plated in flat-bottom 96-well plates (100 uL/well) at equal cell number. After the indicated times post-washout, CellTiter Glo (Promega, Madison, Wis.) was used to asses the cell viability per the manufacturer's instructions. Briefly, after adding 100 uL CellTiter Glo reagent to each well, the plate was rocked at room temperature for 5-10 min, and luminescence intensity was measured. Proliferation curves were generated by first normalizing luminescence intensity in each well to the average T=0 value for each compound. Normalized luminescence intensity was plotted in GraphPad Prism (triplicate values, mean±SD).

[3] = tested on: protein synthesis in HCT116 cells; assay: Protein synthesis inhibition assay (transient exposure, followed by washout), O-propargyl puromycin incorporation; format: cell-based; conditions: 100 nM for 4 h, 24 h compound-free media
Protocol: HCT116 cells at 80% confluency in 24-well plates were incubated with compounds with at 100 nM for 4 hours at 37° C. O-propargyl-puromycin (30 uM final concentration) was then added, and the cells were incubated for 1 hour at 37° C. Media was carefully removed, cells were washed with warm PBS twice (2× short wash), followed by 5 min incubation in warm medium at 37° C. (long wash). After repeating the “short-long” washing cycle for 3 times, cells were then resuspended in warm media and incubated at 37° C. After the indicated time post-washout, media was removed, and cells were trypsinized, collected, and washed twice with ice-cold PBS before transferring to a 96-well V bottom plate. 100 uL Zombie Red (BioLegend, San Diego, Calif.) solution was added to each well and incubated for 30 min at RT in the dark. Cells were then washed with 2% FBS in PBS buffer before fixed with 200 uL of 4% PFA in PBS for 15 min on ice in dark. After washing the cells with 2% FBS in PBS buffer, 200 uL permeabilization buffer (3% FBS, 0.1% Saponin in PBS) was added to each well, and cells were incubated for 5 min at RT in the dark. Cells were then washed and resuspended in 25 uL permeabilization buffer. 100 uL click chemistry mix (50 mM HEPES pH=7.5, 150 mM NaCl, 400 uM TCEP, 250 uM TBTA, 5 uM CF405M-Azide (Biotium, Fremont, Calif.), 200 uM Cu2SO4) was added to each well, and cells were incubated at RT in dark. After the overnight incubation, cells were washed with permeabilization buffer followed by FACS buffer (2% FBS, 1% P/S, 2 mM EDTA, in PBS w/o Ca/Mg). Cells were then resuspended in 200 uL FACS buffer and filtered before FACS analysis (FACSCanto II, Becton Dickinson, Franklin Lakes, N.J.). Only single, live cells were analyzed (FlowJo), as judged by forward/side scattering and the absence of Zombie Red staining. Protein synthesis inhibition curves were generated by first normalizing intensity to the cycloheximide-treated (50 μg/mL for 1 h, maximum inhibition) and DMSO-treated control samples. Normalized intensity was plotted in GraphPad Prism.

Eμ-Myc/+ lymphoma cells = assay: Eμ-Myc mouse lymphoma model; format: in vivo
Protocol: Mouse studies were approved by the University of California, San Francisco Institutional Animal Care and Use Committee (IACUC). Eμ-Myc/+ mice were purchased from the Jackson Laboratory. For the Eμ-Myc tumor model, allograft mice were generated using spontaneous lymph node tumors derived from Eμ-Myc mice. 5×10^5 Eμ-Myc/+ lymphoma cells were injected via the tail vein into eight-week-old male C57BL/6J mice. Seven days after lymphoma cell injection, mice were randomized to receive vehicle (10% EtOH/Kolliphor EL in water, n=5 mice) or (S,R)-A3 (n=5 mice) by intraperitoneal injection every other day (3 times per week) until the endpoint based on the IACUC-approved protocol. Eμ-Myc mice in the (S,R)-A3 treatment arm received (S,R)-A3 at a dose of 2 mg/kg for the first 21 days and 1-2 mg/kg after treatment day 21 according to their body weights (BW): BW>26 g, 2 mg/kg; BW 25-26 g, 1.5 mg/kg; BW 24-25 g, 1 mg/kg).
We next tested the effect of (S,R)-A3 in a preclinical mouse model of B-cell lymphoma using an intermittent dosing regimen (QOD×3, every other day, 3 doses per week via intraperitoneal injection). Eμ-Myc/+ mice are a well-characterized mouse lymphoma model that overexpress MYC under the transcriptional control of the IgH enhancer element. These mice recapitulate the genetic lesion underlying Burkitt's Lymphoma. Eμ-Myc/+ lymphoma cells were injected via the tail vein into eight-week-old male C57BL/6J mice. Seven days after lymphoma cell injection, mice were randomized to receive vehicle or (S,R)-A3 by intraperitoneal injection (QOD×3, n=5 mice/treatment arm).

[4] = tested on: protein synthesis in HCT116 cells; assay: Protein synthesis inhibition assay (continuous exposure), O-propargyl puromycin incorporation; format: cell-based; conditions: 24 h treatment, 1 h OPP pulse, read-out: IC50, rate of protein synthesis
Protocol: HCT116 cells at 80% confluency in 12-well plates were incubated with compounds with varying concentrations for 10 min or 24 hours at 37° C. After the indicated time, O-propargyl-puromycin (30 μM final concentration) was added, and the cells were incubated for 1 hour at 37° C. Subsequently, media was removed, and cells were trypsinized, collected, and washed twice with ice-cold PBS before transferring to a 96-well V bottom plate. 100 uL Zombie Red (BioLegend, San Diego, Calif.) solution was added to each well and incubated for 30 min at RT in dark. Cells were then washed with 2% FBS in PBS buffer before fixed with 200 uL of 4% PFA in PBS for 15 min on ice in dark. After washing the cells with 2% FBS in PBS buffer, 200 uL permeabilization buffer (3% FBS, 0.1% saponin in PBS) was added to each well, and the cells were incubated for 5 min at RT in the dark. Cells were then washed and resuspended in 25 uL permeabilization buffer. 100 uL click chemistry mix (50 mM HEPES pH=7.5, 150 mM NaCl, 400 uM TCEP, 250 uM TBTA, 5 uM CF405M-Azide (Biotium, Fremont, Calif.), 200 uM Cu2SO4) was added to each well, and cells were incubated at RT in the dark. […] Only single, live cells were analyzed (FlowJo), as judged by forward/side scattering and the absence of Zombie Red staining. […]

[5] = tested on: eEF1A-mutant (A399V) HCT116 cells; conditions: read-out: IC50, cell proliferation in eEF1A-mutant (A399V) cells; 72 h; AlamarBlue
Protocol: Cell proliferation (% DMSO control) was quantified using AlamarBlue. […] Data points (% DMSO control) are mean values±SD (n=3).
Adherent cells were briefly trypsinized and repeatedly pipetted to produce a homogeneous cell suspension. 2,500 cells were seeded in 100 uL complete growth media per well in 96-well clear-bottom plates. Suspension cells were repeatedly pipetted to produce a homogeneous cell suspension. 10,000 cells were seeded in 100 uL complete growth media per well in 96-well clear-bottom plates. After allowing cells to grow/adhere overnight, cells were treated with 25 uL/well 5×drug stocks (0.1% DMSO final) and incubated for 72 hr. AlamarBlue (Life Technologies, Grand Island, N.Y.) was used to assess cell viability per the manufacturer's instructions. Briefly, 12.5 uL alamarBlue reagent was added to each well, and plates were incubated at 37° C. Fluorescence intensity was measured every 30 min to determine the linear range for each assay (Ex 545 nm, Em 590 nm, SPARK, Tecan Austria GmbH, Austria). Proliferation curves were generated by first normalizing fluorescence intensity in each well to the DMSO-treated plate average. Normalized fluorescence intensities were plotted in GraphPad Prism (GraphPad, La Jolla, Calif.), and IC50 values calculated from nonlinear regression curves. The reported IC50 values represent the average of at least three independent determinations (±SD).

FIG. 14 [6] = assay: FIG. 14
Protocol: (§1) Table printed on a drawing sheet, FIG. 14
(§2) The patent's description of the figure: FIG. 14. SRA3 pharmacokinetic data. PK studies were performed in C57BL/6 mice
First reader's note: IV route is given in the head cell of the first column; the plot legend on the same sheet prints IV 2 mg/kg in mouse.

FIG. 14 [7] = assay: FIG. 14; remark: listed apart in the source
Protocol: as §1, §2
First reader's note: IP route is given in the head cell of the first column; the plot legend on the same sheet prints IP 2 mg/kg in mouse.

HCT116 cells = assay: Cell viability, Alamar Blue, 24 h treatment; format: cell-based; conditions: relative to DMSO controls
Protocol: 5,000 HCT116 cells were seeded in 100 μL complete growth media per well in 96-well plates.

[8] = target: eEF1A (Elongation Factor 1-alpha), wild type (UniProt P68104); assay: cell-based or functional assay
[9] = C57BL/6, mouse, in vivo, iv, 2 mg/kg
[10] = C57BL/6, mouse, in vivo, ip, 2 mg/kg

Sequence of eEF1A (Elongation Factor 1-alpha), wild type (P68104 2-462): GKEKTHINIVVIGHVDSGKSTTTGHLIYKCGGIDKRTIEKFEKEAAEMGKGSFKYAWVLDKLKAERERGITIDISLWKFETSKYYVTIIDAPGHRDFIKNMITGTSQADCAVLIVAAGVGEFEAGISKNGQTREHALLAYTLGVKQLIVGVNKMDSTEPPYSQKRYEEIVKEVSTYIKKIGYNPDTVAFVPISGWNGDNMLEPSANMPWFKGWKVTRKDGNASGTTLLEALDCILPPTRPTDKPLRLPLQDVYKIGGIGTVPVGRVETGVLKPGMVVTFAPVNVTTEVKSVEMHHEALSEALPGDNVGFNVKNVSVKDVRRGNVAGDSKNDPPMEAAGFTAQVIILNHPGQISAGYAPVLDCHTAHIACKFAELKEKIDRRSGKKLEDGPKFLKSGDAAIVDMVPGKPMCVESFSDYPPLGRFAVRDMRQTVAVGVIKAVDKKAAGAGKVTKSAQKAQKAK

Question: Which “reduction of cell viability, continuous treatment” value [1] does the source give for `C=C[C@H](C)C[C@@H]1NC(=O)[C@H]([C@H](O)C(C)C)N(C)C(=O)[C@H](C)N(C)C(=O)[C@@H]([C@@H](C)CC)NC(=O)[C@@H]([C@H](O)C(C)C)NC(=O)[C@H]2CCCCN2C(=O)[C@H](C)N(C)C1=O` [(S,R)-A3] here?
Answer: low nanomolar concentrations

Question: What about the “antiproliferative activity after transient exposure and washout” value [2] of the same molecule?
Answer: profound and sustained loss of cell viability; also recorded: strong antiproliferative activity

Question: And the “recovery of protein synthesis after washout” value [3]?
Answer: sustained, washout-resistant manner

Question: And the “maximum BW loss” value (Eμ-Myc/+ lymphoma cells; 2 mg/kg (1-2 mg/kg after day 21) intraperitoneal, QOD×3)?
Answer: < 8%

Question: And the survival (Eμ-Myc/+ lymphoma cells; 2 mg/kg (1-2 mg/kg after day 21) intraperitoneal, QOD×3, P=0.0027)?
Answer: significantly improved survival

Question: And the tumor growth (Eμ-Myc/+ lymphoma cells; 2 mg/kg (1-2 mg/kg after day 21) intraperitoneal, QOD×3, start 7 days after cell injection)?
Answer: reduced tumor growth

Question: And the “efficacy in mouse lymphoma model” value (Eμ-Myc/+ lymphoma cells; Eμ-Myc mouse model of B-cell lymphoma)?
Answer: efficacious

Question: Which “reduction of cell viability, continuous treatment” value [1] does the source give for `C=C[C@H](C)C[C@@H]1NC(=O)[C@H]([C@@H](O)C(C)C)N(C)C(=O)[C@H](C)N(C)C(=O)[C@@H]([C@@H](C)CC)NC(=O)[C@@H]([C@H](O)C(C)C)NC(=O)[C@H]2CCCCN2C(=O)[C@H](C)N(C)C1=O` [(S,S)-A3] here?
Answer: low nanomolar concentrations

Question: And the “antiproliferative activity after transient exposure and washout” value [2]?
Answer: less efficacious

Question: What about the “recovery of protein synthesis after washout” value [3] of the same molecule?
Answer: partially recovered

Question: What does the source list for `C=C[C@H](C)C[C@@H]1NC(=O)[C@H]([C@H](O)C(C)C)N(C)C(=O)[C@H](C)N(C)C(=O)[C@@H]([C@@H](C)CC)NC(=O)[C@@H]([C@H](O)C(C)C)NC(=O)[C@H]2CCCCN2C(=O)[C@H](C)N(C)C1=O` [SR-A3]?
Answer: cell proliferation after washout ([2]; HCT116, 100 nM for 4 h, rigorous washout, 72-h washout period): nearly abolished; IC50 [4]: ~20 nM; recovery of protein synthesis after washout [3]: sustained inhibition; IC50 [5]: > 1000 nM

Question: For `C=C[C@H](C)C[C@@H]1NC(=O)[C@H]([C@H](O)C(C)C)N(C)C(=O)[C@H](C)N(C)C(=O)[C@@H]([C@@H](C)CC)NC(=O)[C@@H]([C@H](O)C(C)C)NC(=O)[C@H]2CCCCN2C(=O)[C@H](C)N(C)C1=O` [SRA3], which “AUCInf” value (FIG. 14 [6]) is on record?
Answer: 395 ng·h/mL

Question: And the “AUClast” value (FIG. 14 [6])?
Answer: 367 ng·h/mL

Question: And the “CL” value (FIG. 14 [6])?
Answer: 87.2 mL/min/kg

Question: What about the “Vss” value (FIG. 14 [6]) of the same molecule?
Answer: 42.0 L/kg

Question: What about the “Vz” value (FIG. 14 [6]) of the same molecule?
Answer: 52.7 L/kg

Question: What about the C0 (FIG. 14 [6]; [9]) of the same molecule?
Answer: 204 ng/mL

Question: What about the MRT (FIG. 14 [6]; [9]) of the same molecule?
Answer: 7.97 h

Question: What about the half-life (FIG. 14 [6]; [9]) of the same molecule?
Answer: 407 min

Question: What about the “AUCInf” value (FIG. 14 [7]) of the same molecule?
Answer: 384 ng·h/mL

Question: And the “AUCInf/D” value (FIG. 14 [7])?
Answer: 192 kg·ng·h/mL/mg

Question: And the “AUClast” value (FIG. 14 [7])?
Answer: 347 ng·h/mL

Question: And the “F (%)” value (FIG. 14 [7])?
Answer: 97.2%

Question: What about the “tmax” value (FIG. 14 [7]) of the same molecule?
Answer: 35 min

Question: What about the Cmax (FIG. 14 [7]; [10]) of the same molecule?
Answer: 86.6 ng/mL

Question: What about the MRT (FIG. 14 [7]; [10]) of the same molecule?
Answer: 8.63 h

Question: What about the half-life (FIG. 14 [7]; [10]) of the same molecule?
Answer: 493 min

Question: For `C=C[C@H](C)C[C@@H]1NC(=O)[C@H]([C@H](O)C(C)C)N(C)C(=O)[C@H](C)N(C)C(=O)[C@@H]([C@H](C)CC)NC(=O)[C@@H]([C@H](O)C(C)C)NC(=O)[C@H]2CCCCN2C(=O)[C@H](C)N(C)C1=O` [WHY3179], which IC50 (HCT116 cells) is on record?
Answer: 6.3 nM

Question: Which IC50 (HCT116 cells) does the source give for `C=C[C@H](C)C[C@@H]1NC(=O)[C@H]([C@H](O)C(C)C)N(C)C(=O)[C@H](C)N(C)C(=O)[C@@H]([C@@H](C)CC)NC(=O)[C@@H]([C@H](O)C2CC2)NC(=O)[C@H]2CCCCN2C(=O)[C@H](C)N(C)C1=O` [WHY4014] here?
Answer: 14.8 nM

Question: With ternatin-4 (peptide) as the molecule, how does the cell proliferation rate after transient exposure (100 nM, 4 h) and washout, HCT116 cells, % of DMSO control (% of DMSO control) [8] read?
Answer: 50

Question: And the protein synthesis rate 24 h after washout (100 nM for 4 h), HCT116 cells, % of DMSO control (% of DMSO control) [8]?
Answer: 30

Question: And the rate of protein synthesis (OPP incorporation), HCT116 cells, 10 min treatment; potency relative to SR-A3 [8]?
Answer: 10 fold

Source: patent publication US20230135758A1, “[…] 1-ALPHA INHIBITORS AND USES THEREOF” (The Regents of the University of California, priority 2020, published 2023)
